# Compound: T1, C[C@H]1CNCCN1c1nccc(-c2noc3c2CCC[C@@]32CCCc3sc(N)c(C#N)c32)n1 [BI-2493]
# Assay: not given
# Details: 5 days
# Method: (§1)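 PRISM pooled barcoded cancer cell line viability screen (Broad Institute) with BI-2493 at 8 doses in threefold dilutions from 0.00457 to 10 µmol/L, 5-day treatment; curves fitted per cell line. IC50 is undefined (placeholder) for resistant lines. AUC is capped at 1, and sensitivity is reported as 1 − AUC.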
row,Test System,IC50 of cell viability [µM]
1,KMRC3_KIDNEY,7
2,NOZ_LIVER,9.22
3,RCHACV_HAEMATOPOIETIC_AND_LYMPHOID_TISSUE,4.98
4,G402_SOFT_TISSUE,4.25
5,SNU1214_UPPER_AERODIGESTIVE_TRACT,0.175
6,MB1_THYROID,5.5
7,SNU840_OVARY,7.7
8,SW1463_LARGE_INTESTINE,4.74
9,KMS21BM_HAEMATOPOIETIC_AND_LYMPHOID_TISSUE,9.51
10,SKOV3_OVARY,7.06
11,TM31_CENTRAL_NERVOUS_SYSTEM,8.57
12,A673_BONE,9.04
13,CFPAC1_PANCREAS,4.12
14,HSC1_SKIN,4.81
15,MONOMAC1_HAEMATOPOIETIC_AND_LYMPHOID_TISSUE,7.33
16,UACC257_SKIN,7.78
17,CORL279_LUNG,7.86
18,VMCUB1_URINARY_TRACT,3.76
19,MOLT3_HAEMATOPOIETIC_AND_LYMPHOID_TISSUE,6.51
20,KMS11_HAEMATOPOIETIC_AND_LYMPHOID_TISSUE,3.13
21,ONS76_CENTRAL_NERVOUS_SYSTEM,5.21
22,SW13_ADRENAL_CORTEX,4.77
23,RVH421_SKIN,5.43
24,CHP212_AUTONOMIC_GANGLIA,9.9

row,Test System,IC50 of cell viability [µM]
1,NCIH2110_LUNG,6.61
2,SNU1041_UPPER_AERODIGESTIVE_TRACT,9.15
3,S117_THYROID,4.21
4,639V_URINARY_TRACT,> 10
5,COLO668_LUNG,5.95
6,G361_SKIN,4.01
7,PANC0327_PANCREAS,7.84
8,OVKATE_OVARY,4.22
9,LS1034_LARGE_INTESTINE,0.575
10,SKMES1_LUNG,8.98
11,OCIC4P_OVARY,6.47
12,SNU1544_LARGE_INTESTINE,2.68
13,G401_SOFT_TISSUE,> 10
14,A101D_SKIN,8.09
15,CAL148_BREAST,> 10
16,HCC1195_LUNG,9.21
17,SKPNDW_BONE,9.05
18,CAL120_BREAST,> 10
19,SW579_THYROID,3.16
20,HEC116_ENDOMETRIUM,9.57
21,MONOMAC6_HAEMATOPOIETIC_AND_LYMPHOID_TISSUE,7.72
22,PATU8988S_PANCREAS,1.14
23,WM793_SKIN,5.47
24,TEN_ENDOMETRIUM,9.58

row,Test System,IC50 of cell viability [µM]
1,WSUDLCL2_HAEMATOPOIETIC_AND_LYMPHOID_TISSUE,4.99
2,NCIH2171_LUNG,9.88
3,NCIH1573_LUNG,7.27
4,COV318_OVARY,> 10
5,TF1_HAEMATOPOIETIC_AND_LYMPHOID_TISSUE,0.352
6,MKN7_STOMACH,8.55
7,RPMI8402_HAEMATOPOIETIC_AND_LYMPHOID_TISSUE,6.85
8,CAL33_UPPER_AERODIGESTIVE_TRACT,6.54
9,SKN_ENDOMETRIUM,6.7
10,SUIT2_PANCREAS,4.96
11,NCIH2126_LUNG,9.82
12,U2904_HAEMATOPOIETIC_AND_LYMPHOID_TISSUE,9.63
13,LUDLU1_LUNG,4.54
14,COV434_OVARY,3.6
15,OZ_BILIARY_TRACT,6.81
16,RH36_SOFT_TISSUE,6.76
17,CAL72_BONE,> 10
18,HCC1395_BREAST,5.13
19,KON_UPPER_AERODIGESTIVE_TRACT,3.51
20,U118MG_CENTRAL_NERVOUS_SYSTEM,6.46
21,DND41_HAEMATOPOIETIC_AND_LYMPHOID_TISSUE,4.59
22,UMUC10_URINARY_TRACT,9.49
23,DKMG_CENTRAL_NERVOUS_SYSTEM,4.05
24,AN3CA_ENDOMETRIUM,4.74

row,Test System,IC50 of cell viability [µM]
1,TTC549_SOFT_TISSUE,5.34
2,CORL105_LUNG,> 10
3,IALM_LUNG,1.56
4,HSC5_SKIN,5.05
5,TCCPAN2_PANCREAS,8.86
6,HPAC_PANCREAS,1.1
7,TUHR4TKB_KIDNEY,3.62
8,NCIH1568_LUNG,7.78
9,IPC298_SKIN,4.47
10,BICR56_UPPER_AERODIGESTIVE_TRACT,4.72
11,NOMO1_HAEMATOPOIETIC_AND_LYMPHOID_TISSUE,0.331
12,MOLP2_HAEMATOPOIETIC_AND_LYMPHOID_TISSUE,6.56
13,NCIH28_PLEURA,5.43
14,HEC6_ENDOMETRIUM,8.15
15,NP3_CENTRAL_NERVOUS_SYSTEM,8.21
16,KU1919_URINARY_TRACT,9.28
17,BFTC909_KIDNEY,6.33
18,H376_UPPER_AERODIGESTIVE_TRACT,5.33
19,SNU213_PANCREAS,5.63
20,KNS42_CENTRAL_NERVOUS_SYSTEM,6.04
21,CHL1_SKIN,4.96
22,MHHES1_BONE,8.05

# Compound: T1, BI-2493
# Assay: 1 - AUC of viability dose-response curve (sensitivity) (fraction); higher = more sensitive
# Details: 5 days
# Method: as §1
row,Test System,1 - AUC of viability dose-response curve
1,KMRC3_KIDNEY,0.0597
2,NOZ_LIVER,0.0154
3,RCHACV_HAEMATOPOIETIC_AND_LYMPHOID_TISSUE,0.198
4,G402_SOFT_TISSUE,0.117
5,SNU1214_UPPER_AERODIGESTIVE_TRACT,0.482
6,MB1_THYROID,0.165
7,SNU840_OVARY,0.0623
8,SW1463_LARGE_INTESTINE,0.177
9,KMS21BM_HAEMATOPOIETIC_AND_LYMPHOID_TISSUE,0.0119
10,SKOV3_OVARY,0.0812
11,TM31_CENTRAL_NERVOUS_SYSTEM,0.0846
12,A673_BONE,0.0226
13,CFPAC1_PANCREAS,0.15
14,HSC1_SKIN,0.111
15,MONOMAC1_HAEMATOPOIETIC_AND_LYMPHOID_TISSUE,0.17
16,UACC257_SKIN,0.0407
17,CORL279_LUNG,0.134
18,VMCUB1_URINARY_TRACT,0.15
19,MOLT3_HAEMATOPOIETIC_AND_LYMPHOID_TISSUE,0.0789
20,KMS11_HAEMATOPOIETIC_AND_LYMPHOID_TISSUE,0.272
21,ONS76_CENTRAL_NERVOUS_SYSTEM,0.133
22,SW13_ADRENAL_CORTEX,0.0973
23,RVH421_SKIN,0.133
24,CHP212_AUTONOMIC_GANGLIA,0.00818

row,Test System,1 - AUC of viability dose-response curve
1,NCIH2110_LUNG,0.0708
2,SNU1041_UPPER_AERODIGESTIVE_TRACT,0.019
3,S117_THYROID,0.0998
4,639V_URINARY_TRACT,0.116
5,COLO668_LUNG,0.103
6,G361_SKIN,0.117
7,PANC0327_PANCREAS,0.138
8,OVKATE_OVARY,0.086
9,LS1034_LARGE_INTESTINE,0.337
10,SKMES1_LUNG,0.0245
11,OCIC4P_OVARY,0.115
12,SNU1544_LARGE_INTESTINE,0.203
13,G401_SOFT_TISSUE,0.17
14,A101D_SKIN,0.0656
15,CAL148_BREAST,< 0
16,HCC1195_LUNG,0.0206
17,SKPNDW_BONE,0.0174
18,CAL120_BREAST,0.0763
19,SW579_THYROID,0.133
20,HEC116_ENDOMETRIUM,0.012
21,MONOMAC6_HAEMATOPOIETIC_AND_LYMPHOID_TISSUE,0.149
22,PATU8988S_PANCREAS,0.197
23,WM793_SKIN,0.0739
24,TEN_ENDOMETRIUM,0.00891

row,Test System,1 - AUC of viability dose-response curve
1,WSUDLCL2_HAEMATOPOIETIC_AND_LYMPHOID_TISSUE,0.156
2,NCIH2171_LUNG,0.0377
3,NCIH1573_LUNG,0.0775
4,COV318_OVARY,0.0643
5,TF1_HAEMATOPOIETIC_AND_LYMPHOID_TISSUE,0.427
6,MKN7_STOMACH,0.161
7,RPMI8402_HAEMATOPOIETIC_AND_LYMPHOID_TISSUE,0.0899
8,CAL33_UPPER_AERODIGESTIVE_TRACT,0.142
9,SKN_ENDOMETRIUM,0.101
10,SUIT2_PANCREAS,0.123
11,NCIH2126_LUNG,0.142
12,U2904_HAEMATOPOIETIC_AND_LYMPHOID_TISSUE,0.0108
13,LUDLU1_LUNG,0.143
14,COV434_OVARY,0.191
15,OZ_BILIARY_TRACT,0.0583
16,RH36_SOFT_TISSUE,0.119
17,CAL72_BONE,0.176
18,HCC1395_BREAST,0.139
19,KON_UPPER_AERODIGESTIVE_TRACT,0.189
20,U118MG_CENTRAL_NERVOUS_SYSTEM,0.0721
21,DND41_HAEMATOPOIETIC_AND_LYMPHOID_TISSUE,0.156
22,UMUC10_URINARY_TRACT,0.0119
23,DKMG_CENTRAL_NERVOUS_SYSTEM,0.112
24,AN3CA_ENDOMETRIUM,0.142

row,Test System,1 - AUC of viability dose-response curve
1,TTC549_SOFT_TISSUE,0.113
2,CORL105_LUNG,0.157
3,IALM_LUNG,0.317
4,HSC5_SKIN,0.126
5,TCCPAN2_PANCREAS,0.0795
6,HPAC_PANCREAS,0.312
7,TUHR4TKB_KIDNEY,0.123
8,NCIH1568_LUNG,0.0444
9,IPC298_SKIN,0.0978
10,BICR56_UPPER_AERODIGESTIVE_TRACT,0.152
11,NOMO1_HAEMATOPOIETIC_AND_LYMPHOID_TISSUE,0.38
12,MOLP2_HAEMATOPOIETIC_AND_LYMPHOID_TISSUE,0.0525
13,NCIH28_PLEURA,0.0967
14,HEC6_ENDOMETRIUM,0.0397
15,NP3_CENTRAL_NERVOUS_SYSTEM,0.0412
16,KU1919_URINARY_TRACT,0.0267
17,BFTC909_KIDNEY,0.0855
18,H376_UPPER_AERODIGESTIVE_TRACT,0.243
19,SNU213_PANCREAS,0.106
20,KNS42_CENTRAL_NERVOUS_SYSTEM,0.0979
21,CHL1_SKIN,0.14
22,MHHES1_BONE,0.114

# From the supplement of paper PMC11962398
